Laboratory results from paper PMC7118841 (Biomedicine & Pharmacotherapy, 2006).
Where two headings read alike, the source gives them in different places.

Assays:
HEp-2 = conditions: read-out: IC50, cytotoxicity HEp-2; MTT method; cited from earlier work
FluV A (H1N1/PR8) = conditions: cited from earlier work
PfluV 2 = conditions: cited from earlier work; for EC50: read-out: EC50, PfluV 2, MTT method
FluV A [1] = conditions: read-out: EC50, FluV A; MTT method; cited from earlier work
HMV-2 = conditions: read-out: IC50, cytotoxicity HMV-2; MTT method; cited from earlier work
DFV = conditions: read-out: EC50, DFV; MTT method; cited from earlier work
Vero = conditions: read-out: IC50, cytotoxicity Vero; MTT method; cited from earlier work
RSV-B (SM-61-48) = conditions: read-out: EC50, RSV-B (SM-61-48); MTT method; data from one experiment; cited from earlier work
RSV [2] = conditions: read-out: EC50, RSV; MTT method; cited from earlier work
MDCK cells = conditions: cited from earlier work
CDV = conditions: cited from earlier work; for EC50: read-out: EC50, CDV, plaque reduction method
MDCK = conditions: read-out: IC50, cytotoxicity MDCK; MTT method; cited from earlier work
TGEV = format: cell-based, transmissible gastroenteritis virus of swine; conditions: read-out: EC50, TGEV
FIPV = format: cell-based, feline infectious peritonitis virus; conditions: read-out: EC50, FIPV
FluV [3] = conditions: given either orally or intraperitoneally; cited from earlier work
HIV-1 = conditions: read-out: EC50, HIV-1; MTT method; cited from earlier work
FluV A [4] = conditions: read-out: EC50 against FluV A; cited from earlier work
[5] = system: FluV A binding to MDCK cells; conditions: 8–200 μM of compound during 1.5 hour incubation at 37 °C, moi 1; cited from earlier work
SARS-V = format: cell-based, SARS coronavirus; conditions: read-out: EC50, SARS-V
gp-120 = conditions: polyclonal mouse antibody; cited from earlier work
[6] = system: syncytium formation between MOLT-4 cells (uninfected cells) and MOLT-4/IIIb cells (infected cells); conditions: MOLT-4 and MOLT-4/IIIb cells; cited from earlier work
CD4 = conditions: mouse antibody; cited from earlier work
CXCR4 = conditions: monoclonal mouse antibody; cited from earlier work
HIV = conditions: read-out: EC50, anti-HIV, MAGI test; HeLa CD4/LTR-β-Gal cells; cited from earlier work
RSV [7] = conditions: cited from earlier work
[8] = system: ortho- and paramyxoviruses, herpesviruses and retroviruses (HIV-1 and 2); conditions: cited from earlier work
RSV [9] = conditions: HeLa cells; compound after virus adsorption; cited from earlier work
FluV [10] = conditions: data not shown; cited from earlier work
FluV-A [11] = conditions: cited from earlier work
RSV-A [12] = conditions: read-out: EC50 against RSV-A; compound present 1.5–3 hours; cited from earlier work
RSV-A [13] = conditions: cited from earlier work
FluV-A [14] = conditions: read-out: EC50 against FluV-A; compound present 1.5–3 hours; cited from earlier work

Molecule	EC50 (PfluV 2) [µM]	EC50 (FluV A [1]) [µM]	EC50 (DFV) [µM]	EC50 (RSV [2]) [µM]	EC50 (CDV) [µM]	EC50 (TGEV) [µM]	EC50 (FIPV) [µM]	EC50 (HIV-1) [µM]	EC50 (SARS-V) [µM]	further results
NC(=O)c1ncn([C@@H]2O[C@H](CO)[C@@H](O)[C@H]2O)n1 [Ribavirin, reference compound]	14 ± 4.8	5 ± 2.8	> 100	3.9 ± 3.1	74 ± 35					IC50 (HEp-2): 52.7 µM; appearance of lungs of infected mice (FluV A (H1N1/PR8); 40 mM ribavirin alone, data not shown): swollen and reddened due to congestion; mice survived on the 9th day (FluV A (H1N1/PR8); 80 mM ribavirin aerosol every 12 hours for 4 days): 60%; survival at 14 days after the infection (FluV A (H1N1/PR8); 80 mM ribavirin alone): 30%; IC50 (HMV-2): > 100 µM; IC50 (Vero): 100 µM; EC50 (RSV-B (SM-61-48)): 1.6 µM; Percent viability of cells (MDCK cells; single compound at 100 μM, untreated cells = 100%): 107.2 ± 1.7%; Percent viability of cells (MDCK cells; single compound at 200 μM): 104.8 ± 3.8%; Percent viability of cells (MDCK cells; single compound at 400 μM): 102.8 ± 4.1%; IC50 (MDCK): > 200 µM
(NBu4)4(PriNH3) [PTi2W10O38(O2)2]2H2O [PM-803]						0.34 ± 0.3	> 21			
Ce2H[BW11Mn(H2O)O39] [HPB-2]										therapeutic effect against FluV infection in mice (FluV [3]): potent therapeutic effect
K5[SiVW11O40] [PM-43]	> 100	8.4 ± 6.5	10.7 ± 6.7	1.6	7.5 ± 1			0.3 ± 0.12		antiviral activity against PfluV 2 (PfluV 2): did not have antiviral activities
K7[BVW11O40] [PM-47]	67.1	11.5 ± 0.6	10.5 ± 6.9	29	6 ± 0.6			0.03 ± 0.01		
K9H6(Ge2Ti6W18O77)16H2O [PM-504]						1.4 ± 0.5	0.4 ± 0.3		3.5 ± 2.4	EC50 (FluV A [4]): 1.3 µM; inhibition of the binding of FluV to MDCK cells (FACS) [5]: inhibited the binding
K10Na[(VO)3(SbW9O33)2]26H2O [PM-1001]	1.1 ± 0.9	1.75 ± 1.6		< 0.16	5.7 ± 0.5	0.14 ± 0.1	0.2 ± 0.1	0.14 ± 0.17	0.7 ± 0.4	inhibition of binding of anti-gp120 antibody to gp-120 (gp-120): inhibited; inhibition of syncytium formation [6]: inhibited syncytium formation; inhibition of binding of anti-CD4 antibody to its target molecule (CD4): did not inhibit; inhibition of binding of anti-CRCX4 antibody to its target molecule (CXCR4): did not inhibit; EC50 (HIV): 0.01 µM
K11H[(VO)3(SbW9O33)2]27H2O [PM-1002]	0.75 ± 0.05	4 ± 1.7	2 ± 1.4	0.75 ± 0.05	2.8 ± 1	0.6 ± 0.4		0.03 ± 0.01	0.25 ± 0.07	inhibition of syncytium formation [6]: inhibited syncytium formation; EC50 (HIV): 0.018 µM
K12Nb6P2W12O62 [HS-158]										IC50 (HEp-2): 82.7 µM; IC50 (HMV-2): 53.7 µM; IC50 (Vero): > 200 µM; EC50 (RSV-B (SM-61-48)): 2.7 µM; IC50 (MDCK): 164 µM
K12[(VO)3(AsW9O33)2]12H2O [PM-1207]						1.9 ± 1.4	0.09 ± 0.04		0.9 ± 0.24	
K12[(VO)3(BiW9O33)2]29H2O [PM-1208]						2 ± 1.8	> 3.6		2.7 ± 0.6	
K12[(VO)3(PW9O34)2]nH2O [PM-1213]						1.7 ± 1	> 10.5		0.47 ± 0.14	
Na7H9{Eu3O(OH)3(H2O)3}2Al2(Nb6O19)5}47H2O [PM-802]						0.5 ± 0.5	0.03 ± 0.01		> 50	
[(Me3NH)8Si2W18Nb6O77]nH2O [HS-106]										anti-RSV activity (RSV [7]): most potent and selective anti-RSV activity; IC50 (HEp-2): > 200 µM; IC50 (HMV-2): 20.7 µM; antiviral activity [8]: broad spectrum antiviral activity; IC50 (Vero): 148 µM; EC50 (RSV-B (SM-61-48)): 4.5 µM; IC50 (MDCK): > 200 µM
[Et2NH2]7[PTi2W10O40] [PM-518]	53 ± 39	62 ± 27	36.8 ± 3	26.5	> 50	2.1 ± 1.1	> 32.9	2 ± 0.8	> 50	antiviral activity against CDV (CDV): did not have antiviral activities
[K10Fe4(H2O)2 (PW9O34)2]nH2O [HS-058]										IC50 (HEp-2): > 200 µM; IC50 (HMV-2): 50 µM; concentration inhibiting syncytium formation of RSV (RSV [9]): 8.5 µM; concentration inhibiting hemolysis of chicken erythrocytes by FluV (FluV [10]): 58 µM; IC50 (Vero): 50 µM; EC50 (RSV-B (SM-61-48)): 3.1 µM; Inhibition of RNA and protein synthesis (FluV-A [11]): Probably no; Inhibition of fusion between infected and uninfected cells (FluV-A [11]): Unclear; EC50 (RSV-A [12]): > 20 µM; Inhibition of RNA and protein synthesis (RSV-A [13]): Probably no; Inhibition of fusion of virus envelope and cell membrane (RSV-A [13]): Unclear; IC50 (MDCK): > 200 µM; EC50 (FluV-A [14]): > 31 µM
[NH4]12H(BiW9O33)3Bi6(OH)3(H2O)3V4H10]25H2O [PM-1210]						1.6 ± 1.1	0.74 ± 0.4		0.76 ± 0.3	
[Na16Fe4(H2O)2(P2W15O56)2]nH2O [HS-054]										IC50 (HEp-2): 88 µM; IC50 (HMV-2): > 200 µM; IC50 (Vero): 50 µM; EC50 (RSV-B (SM-61-48)): 7.8 µM; IC50 (MDCK): > 200 µM
[Pri2NH2]5[PTiW11O40] [PM-520]	23 ± 2.4	45 ± 26	11.7 ± 7.1	0.74 ± 0.6	7.4 ± 0.4	1.4 ± 1.3	0.76 ± 0.5	2 ± 0.5	4.9 ± 1.4	
